Active and inactive are the calls of the source.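 The calls were made as follows: active = AC50 no more than tenfold above the top dose tested, or full inhibition at every dose with a flat fit (cut at about 19 µM in these data); inconclusive = flat curve fit with inhibition between 30% and 70%, or poor fit; inactive = AC50 more than tenfold above the top dose tested.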 A value given as a limit tells only on which side of the number the result lay.

The test has as its system HMLE_sh_eGFP viability, CellTiter-Glo luminescence, 72 h. Kind of test: cytotoxicity in HMLE control line with eGFP shRNA, dose response, counter-screen for HMLE_sh_ECad selective toxicity project, cell-based, HMLE_sh_eGFP, luminescence (AID 463074).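 Also: potency for loss of viability as luminescence drops below DMSO wells.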 Background: A counterscreen serves to expose hits that act by an unwanted route or on another target.
With `O=C(Nc1ccc(NC(=S)NC(=O)c2ccccc2Cl)cc1)c1cccc(Cl)c1`, the AC50 is 17.8 µM.

In the case of `CCCCC(=O)Nc1nc(C)c(-c2csc(Nc3cc(OC)ccc3OC)n2)s1`, the AC50 is 2.27 µM.

On to `O=C(Nc1ccccc1)C1=C[C@@H](c2ccc(C(F)(F)F)cc2)C[C@@H](OCc2ccc(CO)cc2)O1`, for which the AC50 is 7.43 µM.

With `O=C(Nc1ccc(Cl)c(Cl)c1)Nc1ccccc1O`, the AC50 was 12.4 µM.

Take `Cn1nc(C(F)(F)F)c(C(=O)Nc2cccc(C(F)(F)F)c2)c1SCc1ccc(Cl)cc1`: the AC50 was 7.09 µM.

For the compound `COc1cc(CNc2ccc(CNc3ncn[nH]3)cc2)ccc1OCc1ccccc1`, the AC50 was 0.708 µM.

For `COc1cc([C@@H]2c3cc4c(cc3[C@@H](O)[C@H]3COC(=O)[C@H]23)OCO4)cc(OC)c1O[Si](C)(C)C(C)(C)C`, the AC50 is 6.76 µM.

In the case of `Cc1ccccc1NCc1ccc([N+](=O)[O-])s1`, the AC50 was 10.6 µM.

For the compound `O=[N+]([O-])c1cc(C(F)(F)F)ccc1NCCc1c[nH]c2ccccc12`, the half-maximal activity concentration (AC50) was 4.16 µM.

Regarding `Cc1nn(Cc2c(Cl)cccc2Cl)c(C)c1NC(=O)c1cn(-c2ccccc2)nc1-c1ccccc1`, the concentration at half-maximal activity (AC50) is 1.19 µM.

Regarding `CCC(C)Sc1cccc(-c2nc3ccc(C)cn3c2NCc2ccccc2)c1` (stereo not drawn), the half-maximal activity concentration (AC50) is 2.88 µM.

For the compound `O=C(Nc1ccc2c(c1)OCCO2)C(=O)c1c[nH]c2ccccc12`, the AC50 is 1.85 µM.

For `Cc1cc(N2CCCCC2)n2ncc(-c3ccc(Cl)cc3)c2n1`, the concentration at half-maximal activity (AC50) is 6.51 µM.

Consider `CCCCOc1ccc(C(=O)C(CN2CCOCC2)c2ccccc2)cc1` (stereo not drawn), for which the half-maximal activity concentration (AC50) is 6.76 µM.

Take `COc1ccc(CN2CCC(N(CCc3ccccc3)Cc3ccccc3)CC2)c(OC)c1`: the AC50 was 5.43 µM.

Take `Cc1cc(C(=O)N/N=C/c2cc(Br)cc(Br)c2OC(=O)c2cccc(F)c2)n[nH]1`: the AC50 was 3.3 µM.

`COc1ccc(-c2cc(-c3nc4ccccn4c3NCc3ccccc3)ccc2OC)cc1`: the half-maximal activity concentration (AC50) was 1.96 µM.

Take `O=C1CC(c2ccc(F)cc2)CC2=C1C=Nc1ccccc1N2` (stereo not drawn): the AC50 is > 19.5 µM (inactive).

For the compound `O=S(=O)(Nc1nc2ccccc2nc1N1CCN(c2ccccc2F)CC1)c1ccc(Cl)cc1`, the concentration at half-maximal activity (AC50) was 5.8 µM.

Turning to `O=C(NCCc1ccccc1)c1cc(-c2ccccc2)c(N2CCOCC2)s1`, the AC50 was 3.61 µM.

For the compound `COc1cccc(/C=N/NC(=O)c2[nH]c(C)c(C(=O)N/N=C/c3cccc(OC)c3O)c2C)c1O`, the half-maximal activity concentration (AC50) was 4.53 µM.

As to `O=C(NCCCSc1ccccc1)c1cc(Br)ccc1O`, the concentration at half-maximal activity (AC50) is 5.85 µM.

`O=C(NC(=S)Nc1cccc(Cl)c1N1CCCCC1)c1ccc2c(c1)OCCO2`: the AC50 was 1.52 µM.

`COc1ccc(Nc2nc(-c3cccc([N+](=O)[O-])c3)nc3ccccc23)cc1`: the AC50 was 17.8 µM.

As for `CCC(C)NCCOc1ccc(C(C)(C)c2ccccc2)cc1` (stereo not drawn), the AC50 was 5.92 µM.

Consider `Cn1nc([N+](=O)[O-])c(C(C#N)c2ccccn2)c(Cl)c1=O` (stereo not drawn), for which the AC50 was 15.3 µM.

`Cc1cc(C(=O)CN2C(=O)C(=O)N(Cc3ccccc3)C2=O)c(C)n1Cc1ccccc1`: the concentration at half-maximal activity (AC50) is 11.8 µM.

Turning to `CCN(c1ccc(NC(=O)CCc2nc3sc4c(c3c(=O)[nH]2)CCCC4)cc1)C(C)C`, the half-maximal activity concentration (AC50) is 9.45 µM.

Regarding `Cc1cccc(-n2ncc3c(N4CCCc5ccccc54)ncnc32)c1`, the AC50 was 7.68 µM.

Turning to `Cc1cc(SCC(=O)N/N=C/c2ccc(O)cc2O)c(C)cc1Br`, the half-maximal activity concentration (AC50) was 4.42 µM.

For `Cc1cc(C(=O)Nc2nc3c(s2)CCCC3)cs1`, the AC50 is > 19.5 µM (inactive).

`C=CCn1c(O)c(C2=c3ccccc3=NC2=O)sc1=Nc1ccc(O)cc1`: the half-maximal activity concentration (AC50) was 6.76 µM.

Turning to `Cc1cc(NCc2ccccn2)n2nc(C)c(-c3ccc(Cl)cc3)c2n1`, the concentration at half-maximal activity (AC50) is 5.92 µM.

In the case of `O=C(Nc1cc(C(F)(F)F)ccc1N1CCCCC1)c1ccc(Br)o1`, the concentration at half-maximal activity (AC50) is 8.32 µM.

`Cc1nn(Cc2ccc(Cl)cc2)c(C)c1NC(=O)c1cc(-c2ccc3c(c2)OCO3)on1`: the concentration at half-maximal activity (AC50) was 1.17 µM.

As to `C[C@@H]1O[C@@H](O[C@@H]2C=C3CC[C@@H]4C(CC[C@]5(C)[C@@H](c6ccc(=O)oc6)CC[C@]45O)[C@@]3(C)CC2)[C@H](O)[C@H](O)[C@H]1O` (stereo partly drawn), the half-maximal activity concentration (AC50) is less than 0.16 µM.

For `CCc1ccc2[nH]c3nc(N/N=C/c4cccc(O)c4)nnc3c2c1`, the half-maximal activity concentration (AC50) was less than 0.16 µM.

In the case of `N#CCSc1nc2ccccc2c2nc3ccccc3n12`, the AC50 was 5.1 µM.

As to `O=C(O)c1cc(O)ccc1NC(=O)C(c1ccccc1)c1ccccc1`, the AC50 is > 19.5 µM (inactive).

As for `Clc1ccc(-c2ccc(/C=N/Nc3cc(N4CCOCC4)nc(N4CCOCC4)n3)o2)cc1`, the AC50 was 4.24 µM.

For `CCc1cc(-c2n[nH]c(C)c2Oc2ccc(C(C)C)cc2)c(O)cc1O`, the AC50 was 3.65 µM.

With `CC(C)(C)c1ccc(O)c(O)c1`, the AC50 was 13.3 µM.

With `Cc1ccc(S(=O)(=O)N2[C@@H](c3ccc(C(C)(C)C)cc3)C(C(=O)O)=CC[C@H]2c2cccc(Cl)c2)cc1`, the AC50 is 4.26 µM.

With `Cc1cccc(-n2c(/C=C/c3ccc([N+](=O)[O-])o3)nc3ccccc3c2=O)c1`, the half-maximal activity concentration (AC50) is 1.99 µM.

In the case of `NC(=O)CC(NC(=O)Cc1cccc2ccccc12)c1ccc(NCc2ccc(F)cc2)c([N+](=O)[O-])c1` (stereo not drawn), the half-maximal activity concentration (AC50) was 19.8 µM.

Consider `O=C1c2c(Br)c(Br)c(Br)c(Br)c2C(=O)N1c1ccccn1`, for which the AC50 was 3.65 µM.

On to `CCCCN(C)c1nc(-c2ccco2)c2c(c1C#N)CC(C)(C)OC2`, for which the AC50 is 11.7 µM.

With `O=c1c2c3c(sc2nc(NCCO)n1Cc1ccco1)CCCCC3`, the AC50 was 2.01 µM.

Regarding `S=c1nc[nH]c2nc[nH]c12`, the AC50 was 1.52 µM.

As for `Cc1snc(S(=O)(=O)/C(C#N)=N/Nc2ccc(C(F)(F)F)cc2)c1C#N`, the AC50 is 19.7 µM.

In the case of `OCCN(CCO)CC(O)COc1ccc(C23CC4CC(CC(C4)C2)C3)cc1` (stereo not drawn), the concentration at half-maximal activity (AC50) is 0.493 µM.

Turning to `CCN(CC)c1ccc2cc(S(=O)(=O)c3ccc(Cl)cc3)c(=O)oc2c1`, the AC50 is 4.98 µM.

With `CC(C)(C)[C@H](N)C(=O)N[C@H]1CCC2C3CC=C4C[C@@H](O)CC[C@]4(C)C3CC[C@@]21C` (stereo partly drawn), the AC50 is 7.74 µM.

Consider `CC(=O)c1ccc(-c2cc([C@H]3[C@H]4C=CC[C@@H](C)[C@@H]4C(=O)N3Cc3ccccc3)ccc2F)cc1`, for which the half-maximal activity concentration (AC50) is 6.87 µM.

In the case of `NCCc1ccc(OCc2ccccc2)c(OCc2ccccc2)c1`, the AC50 is 13.6 µM.

Turning to `CCN(CC)Cc1c(O)ccc2c1O/C(=C\C=C\c1ccccc1)C2=O`, the AC50 was 18.8 µM.

Turning to `Cc1cc2ccccn2c1C(=O)c1ccc([N+](=O)[O-])o1`, the AC50 was 5.71 µM.

`CC1=CC(C)(C)N(S(=O)(=O)c2ccc(F)cc2)c2ccc(C)cc21`: the AC50 is 2.61 µM.

As for `CCOC(=O)C(C)(C)N(Cc1ccc(Cl)cc1)S(=O)(=O)c1ccc(Cl)c([N+](=O)[O-])c1`, the AC50 is 2.5 µM.

Regarding `COc1ccc(OC)c(Nc2c3ccccc3nc3ccccc23)c1`, the AC50 is 2.7 µM.

In the case of `Oc1ccc(N=Nc2c(O)ccc3ccccc23)cc1`, the half-maximal activity concentration (AC50) is 5.36 µM.

Regarding `Cc1ccc(C)c(N2CCN(C(=S)Nc3ccc4nc(N5CCN(C)CC5)cc(C)c4c3)CC2)c1`, the AC50 is 7.7 µM.

On to `O=S(=O)(Nc1ccc(O)c(Sc2nc3ccccc3s2)c1)c1cccc2ccccc12`, for which the half-maximal activity concentration (AC50) was 5.83 µM.

On to `CC(C)(C)c1cc(C(=O)N/N=C/c2ccccc2O)n(-c2ccccc2)n1`, for which the half-maximal activity concentration (AC50) is 4.41 µM.

Regarding `Cc1ccccc1-c1cc(C(=O)Nc2sc(C(=O)OC(C)C)c(C)c2C#N)c2ccccc2n1`, the AC50 was 2.66 µM.

On to `O=C(Cc1ccccc1)Nc1cccc(NC(=O)c2ccccc2)c1`, for which the AC50 is 9.89 µM.

As to `CC(C)c1nc2sc3ccccc3c(=O)c2c(=O)n1Cc1ccccc1`, the AC50 was 6.29 µM.

Take `CCN1C(=O)C(CC(=O)Nc2ccc(OC)cc2)N(CCCN2CCN(c3ccc(F)cc3)CC2)C1=S` (stereo not drawn): the concentration at half-maximal activity (AC50) was 7.04 µM.

On to `N=c1c2c(ncn1Cc1ccco1)Oc1ccc3ccccc3c1C2c1ccccc1` (stereo not drawn), for which the AC50 was 4.5 µM.

Regarding `O=C(CN1CCCC1)Nc1ccc(Cl)cc1C(=O)c1ccccc1`, the concentration at half-maximal activity (AC50) is 15.3 µM.

As for `Cc1ccc(Sc2c([N+](=O)[O-])c(=O)n(C)c3ccccc23)cc1`, the concentration at half-maximal activity (AC50) is 7.05 µM.

As for `CC(C)(C)c1cc(C(=O)NNc2cccc(Cl)c2)n(Cc2ccccc2)n1`, the AC50 is 2.07 µM.

For `C=CCNc1ncnc2c1ncn2C1OC(CO)C(O)C1O` (stereo not drawn), the half-maximal activity concentration (AC50) is 4.39 µM.

For `Cn1nnnc1Sc1ncnc2scc(-c3cccc(Br)c3)c12`, the concentration at half-maximal activity (AC50) is 3.14 µM.

As to `O=C(NCCCN1CCOCC1)c1ccc(CSc2ccc(Cl)cc2)cc1`, the AC50 is 7.77 µM.

Take `OCCCn1c(CCNc2nc(-c3ccc(Cl)cc3)cs2)nc2cc(C(F)(F)F)ccc21`: the concentration at half-maximal activity (AC50) is 11.3 µM.

Regarding `N#Cc1c(NC(=O)c2ccc(Cn3cc(Br)cn3)o2)sc2c1CCCCC2`, the concentration at half-maximal activity (AC50) was 13.4 µM.

Regarding `O=C(CCN1Cc2ccccc2C1)c1ccc2c(c1)OCCO2`, the half-maximal activity concentration (AC50) was 15.1 µM.

Take `COc1cc(CNC2CCCC2)cc(Cl)c1OCc1ccccc1Cl`: the AC50 was 6.95 µM.

For `COc1ccc(Sc2ccc(-c3nc4cnccn4c3NC3CCCCC3)cc2OC)cc1`, the half-maximal activity concentration (AC50) was 3.57 µM.

With `CCOC(=O)c1c(C)oc2c1C(=O)c1ccccc1C2=O`, the AC50 is 4.72 µM.

As to `CCN1C(=O)C(CC(=O)Nc2ccc(F)cc2)N(CCCN2CCN(c3ccc(F)cc3)CC2)C1=S` (stereo not drawn), the half-maximal activity concentration (AC50) is 6.83 µM.

For `O=C(NNc1ccccc1Br)C(=O)n1ccc2ccccc21`, the AC50 was 8.69 µM.

Regarding `CC(/C=C1\SC(=O)N(CC(=O)Nc2cccc(O)c2)C1=O)=C\c1ccccc1`, the half-maximal activity concentration (AC50) was 13.6 µM.

`CCc1ccc(N(CC(=O)Nc2nc3ccc(C)cc3s2)S(=O)(=O)c2c(C)noc2C)cc1`: the half-maximal activity concentration (AC50) is 6 µM.

Regarding `CCN(CC)CCOc1ccc(/C(=C(\Cl)c2ccccc2)c2ccccc2)cc1`, the AC50 is 1.55 µM.

Take `O=C(/C=C/c1ccc(Cl)c([N+](=O)[O-])c1)Nc1cccc(NC(=O)c2ccco2)c1`: the AC50 is 1.69 µM.

With `COc1ccc(/C=C2\C(=O)c3ccccc3OC2c2ccccc2)cc1` (stereo not drawn), the AC50 was 1.38 µM.

For `c1ccc(C[C@H]2CNCCN2CCCCC2CCCCC2)cc1`, the half-maximal activity concentration (AC50) was 6.83 µM.

With `O/N=C/c1cc(Cl)ccc1OCc1ccccc1Cl`, the half-maximal activity concentration (AC50) is 6.08 µM.

For the compound `COc1cc(S(=O)(=O)N2CCCCCC2)c(OC)cc1Br`, the half-maximal activity concentration (AC50) was 2.55 µM.

For the compound `COc1ccc(C(=O)/C=C/c2ccc(N3CCCCC3)c([N+](=O)[O-])c2)c(OC)c1`, the AC50 was 6.6 µM.

For `CC(=O)Oc1c(Cl)cc(Cl)cc1/C=C/c1ccc2ccccc2n1`, the AC50 is 2.86 µM.

The term AC50 denotes the concentration giving half of the maximal activity seen.
